Data on one compound can be found in patent publication US11510931B2, “Compositions and methods for treating ophthalmic conditions” (MEDICON PHARMACEUTICALS, INC., priority 2016, dated 2022).

Assay [1] concerns IL-1β. The assay can be described thus: IL-1β levels in the ILG of rabbits with DED (ELISA). The format is in vivo, rabbit. Here is the method:
Using this model, we compared the effect of PS to that of cyclosporine and lifitegrast. Rabbits were treated for 6 days with PS as above or cyclosporine 0.05% or lifitegrast 5% eye drops 3×/day. In addition to determining TUBT, osmolarity and STT, we measured the levels of IL-8 and IL-1β in the ILGs of the rabbits harvested at euthanasia. Both of these cytokines are significant mediators of inflammation in DED. As shown in the table below, PS had statistically significant effects on TBUT, tear osmolarity, IL-8 and IL-1β levels. […] Of note, lifitegrast suppressed STT below the levels of the vehicle group and this suppression was statistically significant, but in the opposite direction for a useful therapeutic effect.
Moreover, for all three cytokines PS suppressed their unstimulated levels as well (62%, 84% and 4.7% reduction, respectively). In addition, PS suppressed the levels of IL-8 by 64% and IL-1β (not expressed by the cultured cells) by 61% in the ILG of rabbits treated with PS for 1 week compared to controls treated with vehicle (FIG. 8B). TGF-β was not detectable by the method in ILG homogenates. All these changes were statistically significant (p<0.001-0.04, except for the unstimulated TGF-β).

The subject of assay [2] is concanavalin A-induced dry eye in rabbits. Kind of assay: Concanavalin A (Con A)-induced dry eye disease (DED) model in rabbits: TBUT, Schirmer test, tear osmolarity, tear lactoferrin. It is filed as in vivo, rabbit. How it is done:
To assess the efficacy of PS on DED an improved concanavalin A model was used. In the concanavalin A model, dry eye is induced by injecting the lacrimal glands of a mammal with concanavalin A, a selective T cell mitogen that induces a lymphocytic infiltrate in these glands. The concanavalin A model is generally described in (Barabino S. Animal models of dry eye. Arch Soc Esp Oftalmol. 2005; 80(12):693-4). Concanavalin A was injected to the lacrimal glands under ultrasound guidance, thus eliminating injections to the vicinity of the gland (as opposed to the gland itself). The head and the tail of the major lacrimal gland of the rabbit were injected separately. The dose of concanavalin A was optimized for DED signs.
In the testing described below, four markers of DED are monitored: the tear break up time (TBUT), the Schirmer test, tear osmolarity, and tear lactoferrin levels. All assays were performed at the same clock time (±1 hr) to avoid assay variability on account of circadian variations.
In an efficacy experiment using the concanavalin A model, one group of rabbits was treated with compound 5, also known as phosphosulindac and abbreviated as PS, 1.5% eye drops and one group with vehicle. […] It is thus clear that PS applied topically suppresses DED.
Con A was injected under ultrasound guidance into all the lacrimal glands and the success of the injection was verified by a post-injection ultrasound image (see FIG. 1 and FIG. 2). […] This variation explains why the blind injections recommended in the original method are often unsuccessful. This was confirmed by mixing the Con A solution with methylene blue and tracking its course after injection. In about ⅓ of the cases, Con A ended up outside the gland.
Four parameters of efficacy were evaluated instead of the usual one or two. They include (a) the tear break up time (TBUT), determined using 0.2% fluorescein over the eye and recording the time taken to develop black dots, lines or obvious disruption of the fluorescein film; (b) tear osmolarity, measured using TearLab Osmolarity Test and following the manufacturer's instructions (TearLab Corp., San Diego, Calif.); (3) Schirmer tear test (STT), determined using Schirmer strips (EagleVision, Denville, N.J.) inserted between the cornea and the palpebral conjunctiva at the mid-point of the lower lid and measuring the length of moistened strip at 5 min; and (4) tear lactoferrin levels measured by ELISA kit (MyBiosource, San Diego, Calif.) following the instructions of the manufacturer. All four have been used in clinical practice and correlate with the clinical activity of the disease. The STT is the least reliable and, as result, it is clinically used less than half as frequently as TBUT.
The injections of Con A to the lacrimal glands were repeated weekly as needed. When longer than a 1-week periods of study are needed, repeat injections prolong dry eye for at least 3 weeks, making the originally acute model chronic.
PS Suppresses Con A—Induced Dry Eye in Rabbits. The effect of PS on dry eye was determined in New Zealand White (NZW) rabbits, 2-3 kg (Charles River Labs, Waltham, Mass.). These rabbits were housed singly in rooms with strict temperature (70±5° F.) and humidity (45±5%) control and acclimated for at least 2 weeks prior to induction of dry eye by injection of Con A as above. NZW rabbits with Con A-induced dry eye (three sets of injections) were treated with PS formulated as nanoparticles and administered topically as eye drops 3×/day for 21 days, starting on the day of Con A injection. […] Similar results were obtained on days 5 and 14 (data not shown).
Using this model, we compared the effect of PS to that of cyclosporine and lifitegrast. Rabbits were treated for 6 days with PS as above or cyclosporine 0.05% or lifitegrast 5% eye drops 3×/day. In addition to determining TUBT, osmolarity and STT, we measured the levels of IL-8 and IL-1β in the ILGs of the rabbits harvested at euthanasia. […]

Assay [3] relates to MMP-1. The assay can be described thus: MMP-1 levels in cultured human conjunctival cells (ELISA). It is filed as cell-based. Particulars: for reduction of MMP-1 secreted into the culture medium: compared to controls; for levels of MMP-1 secreted into the culture medium: mean±SEM. How it is done: In an in vitro assay with purified MMP-1 (collagenase I) as […] it was shown that PS inhibited collagenase activity with an IC50 of <100 nM. In cultured human conjunctiva cells, PS suppressed MMP-1 by 75%-86%. In the lacrimal glands of rabbits with DED treated with PS eye drops, PS suppressed MMP-9 levels by 27% compared to vehicle treated rabbits (2.20±0.24 vs. 1.66±0.20 ng/mg protein; p<0.05; mean±SEM).
The Mechanism of Action of PS in Dry Eye. Tissue culture, animal and human studies have established inflammation as the core mechanism of DED^8. To determine the mechanism of action of PS in DED the response to PS of several factors known to play an important role in the inflammation associated with DED was explored. They include NF-κB; the cytokines TGF-β, IL-1 β, IL-6 and IL-8; the collagenases MMP-1 and MMP-9; and PGE2. In these studies we used human conjunctival epithelial cells, the Wong-Kilbourne derivative of Chang conjunctival cells (clone 1 to 5c-41 American Type Culture Collection (Manassas, Va.) certified cell line, 20.2).

The mark [4] stands for this setting: Con A DED rabbits, 6 days, eye drops 3×/day, PS nanoparticles, cyclosporine 0.05%, lifitegrast 5%, mean ± SEM.
The mark [5] stands for this setting: Baseline, PS 1.5% eye drops, Mean ± SEM.
[6] abbreviates: Day 13, PS 1.5% eye drops, Mean ± SEM.
[7] abbreviates: after 1 week of treatment, FIG. 5.

On to `CCOP(=O)(OCC)OCCCCOC(=O)CC1=C(C)/C(=C/c2ccc([S+](C)[O-])cc2)c2ccc(F)cc21` (centres unmarked) [PS, phosphosulindac], for which, in assay [1] (setting [4]), the “IL-1β in the ILG” value is recorded as 8.4 ± 1.2 pg/mg protein. Further, in assay [1] (rabbits treated with PS for 1 week vs vehicle), the “suppression of IL-1β levels in the ILG” value turned out to be 61%. For the same compound, in assay [2] (setting [5]), the Schirmer test was 14.6 ± 0.9 mm, the TBUT was 52.3 ± 4.6 s and the Tear lactoferrin was determined as 3.09 ± 0.4 ng/mg protein. In assay [2] (setting [4]), the Osmolarity amounted to 294 ± 4.6 mOsm/L, the STT is reported as 12.3 ± 0.6 mm and the TBUT was found to be 43.6 ± 4.0 s. The same compound gave a Schirmer test in assay [2] (Day 11, PS 1.5% eye drops, Mean ± SEM) of 9.5 ± 1.0 mm. In assay [2] (setting [6]), this compound showed a TBUT of 56.0 ± 4.0 s and a Tear lactoferrin of 3.19 ± 0.2 ng/mg protein. For the same compound, the “TBUT, tear osmolarity and tear lactoferrin levels” value in assay [2] (PS nanoparticles eye drops 3×/day for 21 days, FIG. 4) is reported as “restored to normal”. In addition, in assay [2] (PS nanoparticles eye drops 3×/day for 21 days, difference from vehicle significant only for trend, FIG. 4), the STT value result is reported as “improved”. Besides, in assay [2] (setting [7]), the STT entry is given as “no significant effect”; the TBUT and osmolarity entry was “normalized”. For the same compound, in assay [3] (PS 1×IC50, 2 h), the “reduction of MMP-1 secreted into the culture medium” value stood at 48% and the “levels of MMP-1 secreted into the culture medium” value was determined as 24.9±0.8. Further, in assay [3] (PS 1.5×IC50, 2 h), the “reduction of MMP-1 secreted into the culture medium” value is 55% and the “levels of MMP-1 secreted into the culture medium” value was found to be 21.6±0.8. For the same compound, the MMP-1 suppression in assay [3] (cultured human conjunctiva cells) is reported as 75%-86%.
